Results from patent US8765696B2, “Steroid compound” (Mikasa Seiyaku Co., Ltd., priority 2009, dated 2014).

Tests used:
[1] = test system: croton oil-induced granuloma; assay: Test for croton oil-induced granuloma (air pouch exudate and thymus weight); type: in vivo, rat; conditions: male Wistar rats, 7 days, vs control group
Description: Using the croton oil granuloma test, which is a test method with which the local anti-inflammatory action and the systemic side effect can be evaluated at the same time, the pharmacological effect and the systemic side effect of the compounds of the present invention were studied.
Five individuals/group of male Wistar rats having body weights of 180 to 225 g were used, and hair on the back of these rats was shaved with a clipper under ether anesthesia, followed by preparing an air pouch by subcutaneous injection of 20 mL of air at the back. On the next day, 1 mL of cottonseed oil containing 1% croton oil was administered to the pouch. Each test drug was suspended in the croton oil-containing cottonseed oil before administration. Seven days later, blood was collected from abdominal aorta under ether anesthesia, and exudate in the pouch was collected and its fluid amount was measured. Further, the thymus was removed, and its weight was measured. The weight of the exudate and the weight of the thymus are shown in Table 2 as the suppression rate and the atrophy rate (%) with respect to those of the control group.

[2] = test system: croton oil-induced ear edema; assay: Test for croton oil-induced ear edema; type: in vivo; conditions: rat right auricle; for Edema suppression rate of 6 hours after administration of inflammatory agent (%): 6 hours after croton oil; for Edema suppression rate of 24 hours after administration of inflammatory agent (%): 24 hours after croton oil
Protocol: Croton oil ear edema test, which is a representative model for dermatitis, was used to study the pharmacological effect of compounds of the present invention.
Five individuals/group of rats of 5 weeks old (body weight, 128 g to 169 g) were used. One day before the test, the thickness of the right ear was measured under ether anesthesia using a dial thickness gauge, to obtain the Pre value. On the day of the test, 20 mg each of the ointments to be tested, which had been prepared to have various concentrations in white vaseline, was applied to the right auricle (both sides) of each rat, and a collar was then placed around the neck of the rat to prevent contacting/scratching and removal of the drug. Two hours later, the ointment was wiped off under ether anesthesia using absorbent cotton, and 0.1 mL of 5% croton oil (croton oil:ether:pyridine:distilled water=1:14:4:1) solution was applied dropwise to the both sides of the auricle while drying the solution with a drier (air blow), to induce ear edema. Six and 24 hours after the induction of the edema, the thickness of the right auricle was measured under ether anesthesia, and the edema rate and the edema suppression rate were calculated according to the equations below, which suppression rate is shown in Table 1.

Row | SMILES | Rate of exudates suppression (pharmacological effects) ([1]; dose 0.001 mg/rat into pouch) | Rate of thymus atrophy (systemic side effects) ([1]; dose 0.001 mg/rat into pouch) | Rate of exudates suppression (pharmacological effects) ([1]; dose 0.01 mg/rat into pouch) | Rate of thymus atrophy (systemic side effects) ([1]; dose 0.01 mg/rat into pouch) | Rate of exudates suppression (pharmacological effects) ([1]; dose 0.1 mg/rat into pouch) | Rate of thymus atrophy (systemic side effects) ([1]; dose 0.1 mg/rat into pouch) | Rate of exudates suppression (pharmacological effects) ([1]; dose 1 mg/rat into pouch) | Rate of thymus atrophy (systemic side effects) ([1]; dose 1 mg/rat into pouch) | Edema suppression rate of 6 hours after administration of inflammatory agent (%) ([2]; ointment concentration 0.001%) | Edema suppression rate of 24 hours after administration of inflammatory agent (%) ([2]; ointment concentration 0.001%) | Edema suppression rate of 6 hours after administration of inflammatory agent (%) ([2]; ointment concentration 0.01%) | Edema suppression rate of 24 hours after administration of inflammatory agent (%) ([2]; ointment concentration 0.01%) | Edema suppression rate of 6 hours after administration of inflammatory agent (%) ([2]; ointment concentration 0.1%) | Edema suppression rate of 24 hours after administration of inflammatory agent (%) ([2]; ointment concentration 0.1%)
1 | CCC(=O)OCC1OC(OCC(=O)C23OC(C4CCCCC4)OC2CC2C4CCC5=CC(=O)C=CC5(C)C4C(O)CC23C)C(OC(=O)CC)C(OC(=O)CC)C1OC(=O)CC (stereo not drawn) [Compound 4] | 17.9% | 0.0% | 44.5% | 0.0% | 87.0% | 0.0% | 94.5% | 0.0% | 30.8% | 33.8% | 46.3% | 70.2% | 54.4% | 71.7%
2 | CC12C=CC(=O)C=C1CCC1C2C(O)CC2(C)C1CC1OC(C3CCCCC3)OC12C(=O)COC1OC(COC=O)C(OC=O)C(OC=O)C1OC=O (stereo not drawn) [Compound 7] | 8.7% | 2.9% | 52.4% | 0.0% | 59.4% | 5.8% | 76.8% | 19.5% | 42.3% | 52.0% | 49.7% | 53.4% | 48.5% | 53.5%
3 | CC(=O)NC1C(OCC(=O)C23OC(C4CCCCC4)OC2CC2C4CCC5=CC(=O)C=CC5(C)C4C(O)CC23C)OC(COC(C)=O)C(OC(C)=O)C1OC(C)=O (stereo not drawn) [Compound 11] | 13.1% | 3.9% | 21.2% | 7.9% | 66.0% | 10.8% | 93.4% | 16.0% | 24.5% | 39.4% | 19.0% | 26.5% | 33.6% | 48.0%
4 | CC12C=CC(=O)C=C1CCC1C2C(O)CC2(C)C1CC1OC(C3CCCCC3)OC12C(=O)COC1OC(COC(=O)c2ccco2)C(OC(=O)c2ccco2)C(OC(=O)c2ccco2)C1OC(=O)c1ccco1 (stereo not drawn) [Compound 8] | 19.1% | 0.0% | 42.1% | 0.0% | 78.0% | 0.0% | 95.0% | 0.5% | 24.2% | 25.9% | 36.0% | 40.1% | 33.4% | 49.6%
5 | C[C@]12C=CC(=O)C=C1CC[C@@H]1[C@@H]2[C@@H](O)C[C@@]2(C)[C@H]1C[C@H]1O[C@@H](C3CCCCC3)O[C@]12C(=O)CO [desCIC, des-ciclesonide, reference compound] | 62.0% | 0.0% | 74.1% | 11.7% | 92.7% | 22.4% | 94.1% | 86.4% |  |  |  |  |  | 
6 | CCCC1O[C@@H]2C[C@H]3[C@@H]4CCC5=CC(=O)C=C[C@]5(C)[C@H]4[C@@H](O)C[C@]3(C)[C@]2(C(=O)CO)O1 (stereo partly drawn) [Budesonide(R), reference compound] | 7.6% | 15.6% | 44.9% | 25.8% | 88.4% | 74.5% | 93.0% | 90.2% |  |  |  |  |  | 
7 | CC12C=CC(=O)C=C1CCC1C2C(O)CC2(C)C1CC1OC(C3CCCCC3)OC12C(=O)COC1OC(CO)C(O)C(O)C1O (stereo not drawn) [Compound 2] |  |  |  |  |  |  |  |  | 13.5% | 12.5% | 36.8% | 38.2% | 50.2% | 49.5%
